Test results as given in patent publication US20250122188A1, “MODULATORS OF THE INTEGRATED STRESS PATHWAY” (Calico Life Sciences LLC, priority 2016, published 2025).
pEC50: −log10 of the molar value.

Tested on: ATF4 luciferase reporter in HEK293T cells
Experiment: ATF4-Luc assay, HEK293T cells carrying the ATF4 luciferase reporter (in vitro model of VWMD)
Assay type: cell-based
Settings: Homo sapiens, HEK-293T, 7 h, read-out: ATF4-Luc EC50
Protocol: In order to test exemplary compounds of the invention in a cellular context, a stable VWMD cell line was first constructed. The ATF4 reporter was prepared by fusing the human full-length ATF4 5′-UTR (NCBI Accession No. BC022088.2) in front of the firefly luciferase (FLuc) coding sequence lacking the initiator methionine as described in Sidrauski et al (eLife 2013). The construct was used to produce recombinant retroviruses using standard methods and the resulting viral supernatant was used to transduce HEK293T cells, which were then subsequently selected with puromycin to generate a stable cell line.
HEK293T cells carrying the ATF4 luciferase reporter were plated on polylysine coated 384-well plates (Greiner Bio-one) at 30,000 cells per well. Cells were treated the next day with 1 μg/mL tunicamycin and 200 nM of a compound of Formula (I) for 7 hours. Luminescence was measured using One Glo (Promega) as specified by the manufacturer. Cells were maintained in DMEM with L-glutamine supplemented with 10% heat-inactivated FBS (Gibco) and Antibiotic-Antimycotic solution (Gibco).

| SMILES | pEC50 |
| --- | --- |
| Cc1ccc(OC(=O)NC23CC(NC(=O)COc4ccc(Cl)c(F)c4)(C2)C3)cc1 [Compound 435, 4-methylphenyl {3-[2-(4-chloro-3-fluorophenoxy)acetamido]bicyclo[1.1.1]pentan-1-yl}carbamate] | 3.30 to 6.60 |

Same assay, conditions: Homo sapiens, HEK-293T; HEK293T ATF4 luciferase reporter cells, 1 μg/mL tunicamycin, 7 hours; read-out: ATF4-Luc EC50

| SMILES | pEC50 |
| --- | --- |
| O=C(COc1ccc(Cl)c(F)c1)NC12CCC(NC(=O)COc3ccnn(CC(F)(F)F)c3=O)(CC1)C(O)C2 (stereo not drawn) [Compound 333, 2-(4-chloro-3-fluorophenoxy)-N-[3-hydroxy-4-(2-{[3-oxo-2-(2,2,2-trifluoroethyl)-2,3-dihydropyridazin-4-yl]oxy}acetamido)bicyclo[2.2.2]octan-1-yl]acetamide] | 3.30 to 6.60 |
| O=C(COc1ccc(Cl)c(F)c1)NC12CCC(NC(=O)COc3ncccn3)(CC1)[C@@H](O)C2 [Compound 500, 2-(4-chloro-3-fluorophenoxy)-N-[(3S)-3-hydroxy-4-{2-[(pyrimidin-2-yl)oxy]acetamido}bicyclo[2.2.2]octan-1-yl]acetamide] | < 5.70 |
| O=C(/C=C/c1ccc(OC(F)(F)F)cn1)NC12CC(NC(=O)COc3ccc(Cl)c(F)c3)(C1)C2 [Compound 376, (2E)-N-{3-[2-(4-chloro-3-fluorophenoxy)acetamido]bicyclo[1.1.1]pentan-1-yl}-3-[5-(trifluoromethoxy)pyridin-2-yl]prop-2-enamide] | 3.30 to 6.60 |
| O=C(COc1ccc(Cl)c(Cl)c1)NC12CC(NC(=O)OCCCc3cccc(Cl)c3)(C1)C2 [Compound 174, 3-(3-chlorophenyl)propyl {3-[2-(3,4-dichlorophenoxy)acetamido]-bicyclo[1.1.1]pentan-1-yl}carbamate] | 3.30 to 6.60 |
| O=C(COc1ccc(Cl)c(F)c1)NC12CCC(NC(=O)COc3ccc(C(F)(F)F)nc3)(CC1)[C@@H](F)C2 (single isomer, unassigned) [Compound 372] | 6.60 to 7.30 |
| O=C(COc1ccc(Cl)c(F)c1)NC12CCC(NC(=O)COc3ccnc(C(F)(F)F)c3)(CC1)[C@@H](O)C2 (single isomer, unassigned) [Compound 318] | 7.30 to 8.00 |
| O=C(COc1ccc(C(F)F)cc1)NC12CC(NC(=O)COc3ccc(C(F)F)cc3)(C1)C2 [Compound 389, N,N′-(bicyclo[1.1.1]pentane-1,3-diyl)bis{2-[4-(difluoromethyl)phenoxy]acetamide}] | 3.30 to 6.60 |
| O=C(/C=C/c1ccc(C(F)(F)F)nc1)NC12CC(NC(=O)COc3ccc(Cl)c(F)c3)(C1)C2 [Compound 351, (2E)-N-{3-[2-(4-chloro-3-fluorophenoxy)acetamido]bicyclo[1.1.1]pentan-1-yl}-3-[6-(trifluoromethyl)pyridin-3-yl]prop-2-enamide] | 3.30 to 6.60 |
| O=C(COc1ccc(Cl)c(F)c1)NC12CCC(NC(=O)COc3ccc(F)cc3)(CC1)[C@@H](O)C2 [Compound 354, 2-(4-chloro-3-fluorophenoxy)-N-{(3S)-4-[2-(4-fluorophenoxy)acetamido]-3-hydroxybicyclo[2.2.2]octan-1-yl}acetamide] | > 8.00 |
| N#Cc1cc(OCC(=O)NC23CC(NC(=O)COc4ccc(Cl)c(F)c4)(C2)C3)ccn1 [Compound 277, 2-(4-chloro-3-fluorophenoxy)-N-(3-{2-[(2-cyanopyridin-4-yl)oxy]acetamido}bicyclo[1.1.1]pentan-1-yl)acetamide] | 3.30 to 6.60 |
| N#Cc1cccc(COCC(=O)NC23CC(NC(=O)COc4ccc(Cl)c(F)c4)(C2)C3)c1 [Compound 138, 2-(4-chloro-3-fluorophenoxy)-N-(3-{2-[(3-cyanophenyl)methoxy]acetamido}-bicyclo[1.1.1]pentan-1-yl)acetamide] | 3.30 to 6.60 |
| CCc1cc(C)cc(OCC(=O)NC23CCC(NC(=O)COc4ccc(Cl)c(F)c4)(CC2)C[C@@H]3O)c1 [Compound 494, 2-(4-chloro-3-fluorophenoxy)-N-{(3S)-4-[2-(3-ethyl-5-methylphenoxy)acetamido]-3-hydroxybicyclo[2.2.2]octan-1-yl}acetamide] | 3.30 to 6.60 |
| Cc1nc(F)ccc1OCC(=O)NC12CC(NC(=O)COc3ccc(Cl)c(F)c3)(C1)C2 [Compound 249, 2-(4-chloro-3-fluorophenoxy)-N-(3-{2-[(6-fluoro-2-methylpyridin-3-yl)oxy]acetamido}bicyclo[1.1.1]pentan-1-yl)acetamide] | 3.30 to 6.60 |
| O=C(COc1ccc(Cl)c(F)c1)NC12CC(NC(=O)COc3ccnn3C3CC3)(C1)C2 [Compound 371, 2-(4-chloro-3-fluorophenoxy)-N-(3-{2-[(1-cyclopropyl-1H-pyrazol-5-yl)oxy]acetamido}bicyclo[1.1.1]pentan-1-yl)acetamide] | 3.30 to 6.60 |
| N#Cc1ccc(COCC(=O)NC23CC(NC(=O)COc4ccc(Cl)c(F)c4)(C2)C3)cc1 [Compound 139, 2-(4-chloro-3-fluorophenoxy)-N-(3-{2-[(4-cyanophenyl)methoxy]acetamido}-bicyclo[1.1.1]pentan-1-yl)acetamide] | 3.30 to 6.60 |
| O=C(COCCc1ccc(Cl)cc1)NC12CC(NC(=O)COc3ccc(Cl)c(F)c3)(C1)C2 [Compound 135, 2-(4-chloro-3-fluorophenoxy)-N-(3-{2-[2-(4-chlorophenyl)ethoxy]acetamido}-bicyclo[1.1.1]pentan-1-yl)acetamide] | 3.30 to 6.60 |
| O=C(COc1ccc(Cl)c(F)c1)NC12CC(NC(=O)CC(=O)c3ccc(Cl)cc3)(C1)C2 [Compound 293, N-{3-[2-(4-chloro-3-fluorophenoxy)acetamido]bicyclo[1.1.1]pentan-1-yl}-3-(4-chlorophenyl)-3-oxopropanamide] | 3.30 to 6.60 |
| O=C(COCc1ccc(OC(F)F)nc1)NC12CC(NC(=O)COc3ccc(Cl)c(F)c3)(C1)C2 [Compound 279, 2-(4-chloro-3-fluorophenoxy)-N-[3-(2-{[6-(difluoromethoxy)pyridin-3-yl]methoxy}acetamido)bicyclo[1.1.1]pentan-1-yl]acetamide] | 3.30 to 6.60 |
| Cc1cccc(CCOCC(=O)NC23CC(NC(=O)COc4ccc(Cl)c(F)c4)(C2)C3)c1 [Compound 136, 2-(4-chloro-3-fluorophenoxy)-N-(3-{2-[2-(3-methylphenyl)ethoxy]acetamido}-bicyclo[1.1.1]pentan-1-yl)acetamide] | 3.30 to 6.60 |
| CC(C)(O)c1ccc(OCC(=O)NC23CC(NC(=O)COc4ccc(Cl)c(Cl)c4)(C2)C3)cc1 [Compound 422, 2-(3,4-dichlorophenoxy)-N-(3-{2-[4-(2-hydroxypropan-2-yl)phenoxy]acetamido}bicyclo[1.1.1]pentan-1-yl)acetamide] | 3.30 to 6.60 |
| N#Cc1cc(OCC(=O)NC23CC(NC(=O)COc4ccc5c(c4)OC(F)(F)O5)(C2)C3)ccn1 [Compound 270, 2-[(2-cyanopyridin-4-yl)oxy]-N-(3-{2-[(2,2-difluoro-2H-1,3-benzodioxol-5-yl)oxy]acetamido}bicyclo[1.1.1]pentan-1-yl)acetamide] | 3.30 to 6.60 |
| COc1ccc(/C=C/C(=O)NC23CC(NC(=O)COc4ccc(Cl)c(F)c4)(C2)C3)cc1 [Compound 347, (2E)-N-{3-[2-(4-chloro-3-fluorophenoxy)acetamido]bicyclo[1.1.1]pentan-1-yl}-3-(4-methoxyphenyl)prop-2-enamide] | 3.30 to 6.60 |
| O=C(COc1ccc2c(c1)OC(F)(F)O2)NC12CCC(NC(=O)COc3ccc4c(c3)OC(F)(F)O4)(C1)C2 [Compound 391, N,N′-(bicyclo[2.1.1]hexane-1,4-diyl)bis{2-[(2,2-difluoro-2H-1,3-benzodioxol-5-yl)oxy]acetamide}] | 3.30 to 6.60 |
| COc1cc(OC)nc(OCC(=O)NC23CCC(NC(=O)COc4ccc(Cl)c(F)c4)(CC2)C[C@@H]3O)n1 [Compound 498, 2-(4-chloro-3-fluorophenoxy)-N-[(3S)-4-{2-[(4,6-dimethoxypyrimidin-2-yl)oxy]acetamido}-3-hydroxybicyclo[2.2.2]octan-1-yl]acetamide] | 3.30 to 6.60 |
| O=C(CCOCc1cccc(Cl)c1)NC12CC(NC(=O)COc3ccc(Cl)c(F)c3)(C1)C2 [Compound 163, N-{3-[2-(4-chloro-3-fluorophenoxy)acetamido]bicyclo[1.1.1]pentan-1-yl}-3-[(3-chlorophenyl)methoxy]propanamide] | 3.30 to 6.60 |
| Cc1ccc(CCOCC(=O)NC23CC(NC(=O)COc4ccc(Cl)c(Cl)c4)(C2)C3)cc1 [Compound 154, 2-(3,4-dichlorophenoxy)-N-(3-{2-[2-(4-methylphenyl)ethoxy]acetamido}-bicyclo[1.1.1]pentan-1-yl)acetamide] | 3.30 to 6.60 |
| O=C(COc1ccc(Cl)c(F)c1)NC12CC(NC(=O)Cc3ccc(C(F)(F)F)nc3)(C1)C2 [Compound 342, 2-(4-chloro-3-fluorophenoxy)-N-(3-{2-[6-(trifluoromethyl)pyridin-3-yl]acetamido}bicyclo[1.1.1]pentan-1-yl)acetamide] | 3.30 to 6.60 |
| O=C(COc1ccc(Cl)c(F)c1)NC12CC(NC(=O)COc3cnc4cc[nH]c4c3)(C1)C2 [Compound 254, 2-(4-chloro-3-fluorophenoxy)-N-(3-{2-[(1H-pyrrolo[3,2-b]pyridin-6-yl)oxy]acetamido}bicyclo[1.1.1]pentan-1-yl)acetamide] | 3.30 to 6.60 |
| O=C(COc1ccc(Cl)c(F)c1)NC12CC(NCC(=O)c3ccc(Cl)c(F)c3)(C1)C2 [Compound 291, 2-(4-chloro-3-fluorophenoxy)-N-(3-{[2-(4-chloro-3-fluorophenyl)-2-oxoethyl]amino}bicyclo[1.1.1]pentan-1-yl)acetamide] | 3.30 to 6.60 |
